According to paper PMC7156724, “Potent BRD4 inhibitor suppresses cancer cell-macrophage interaction” (Nature Communications, 2020):
Values joined by “and” are separate entries in the source; they are usually repeats but may differ in a detail not shown here. Identical values can stand only once.

Legend:
H526 tumors = test: Immunofluorescent staining of cleaved caspase 3 and Ki67 in H526 tumors; format: in vivo, mouse; settings: treated H526 tumors, independent images
Protocol: Immunofluorescence staining of tumor sections was performed according to the manufacturer’s instructions. Slides were imaged using a Zeiss Axiovert 200 fluorescence microscope (Carl Zeiss MicroImaging; Thornwood, NY), and images were captured using Openlab3 software (Imprecision, Lexington, MA). Cleaved caspase 3, Ki67, CSF1, and CD68 positive cells were counted with ImageJ version 1.52s[58].
Supplementary Figure 10. NHWD-870 increased tumor apoptosis and inhibite d tumor proliferation.
(a,b) Immunofluorescent staining of cleaved caspase 3 (apoptotic cells, red) and E-Cadherin (cancer cells, […]
green) in vehicle, NHWD-870 or BMS-986158 treated H526 tumors from Figure 4a. Shown are […]
representative images of cleaved caspase 3 positive cells (a) and quantification of cleaved caspase 3 positive […]
cells (b). Scale bar is 30 μm. Data are presented as mean ± SEM from 6 independent images. p values were […]
calculated using two-tailed, unpaired t tests. **, p<0.01; ***, p<0.001. (c,d) Immunofluorescent staining of […]
Ki67 (proliferating cells, red) and E-Cadherin (cancer cells, green) in vehicle, NHWD-870 or BMS-986158 […]
treated H526 tumors from (Figure 4a). Shown are representative images of Ki67 positive cells (c) and […]
quantification of Ki67 positive cells (d). Scale bar is 30 μm. […]
independent images. p values were calculated using two-tailed, unpaired t tests. *, p<0.05; ***, p<0.001. […]

[1] = Body weight change of H526 SCLC tumor bearing mice; settings: for Mouse body weight changes (%) from Day 0: 3mg/kg, QDx21D, 3 mg/kg
[2] = tested on: MDA-MB231 triple negative breast cancer (TNBC) cells; test: AlamarBlue assay, MDA-MB231; format: cell-based, human; settings: for Cellular activity in TNBCs (MDA-MB231), alamarBlue: Fig.1f, replicates
Outline: (§1)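 BRD4 (BD1+BD2) binding to acetylated histone H4 was measured with a TR-FRET kit per the kit protocol. For the AlamarBlue assays, MDA-MB231, NCI-H211 and A375 cells were plated at ~30% confluence, adhered overnight and treated. Resazurin (0.3 mg/ml reagent) was added for 18 h and fluorescence read at ex 530/em 590 nm.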

A375 human melanoma = A375 human melanoma xenograft tumor growth; format: in vivo, mouse
Text: PO, oral administration; QD, once daily; BID, twice daily. b–d Tumor growth curves for A2780 ovarian tumor (n = 5) (b), TMD8 large B cell lymphoma (n = 6) (c), and B16F10 melanoma (n = 5) (d) bearing mice treated with the indicated compounds once daily for 11-21 days. e, f Tumor growth curves for A375 melanoma (n = 6) (e), and patient-derived xenograft (PDX) of melanoma (n = 5) (f) bearing mice treated with the indicated compounds once daily (5 days on, 2 days off) for 21 days. For d–f, NHWD-870 used is NHWD-870-HCl synthesized using Suzuki coupling route. Data are presented as mean ± SEM in (a, b, d, f) and mean + SEM in (c, e). p values were calculated using two-tailed, unpaired t tests. *p < 0.05; **p < 0.01; ***p < 0.001. Source data are provided as a Source Data file.
4–6 weeks old female BALB/c nude mice were used for most experiments, with the exception of 6–8 weeks old female C57BL/6 mice were used for B16F10 experiments, and 6–8 weeks old male BALB/c nude mice and SD rats were used for pharmacokinetic experiments. All animals were purchased from Shanghai SIPPR-Bk Lab Animal Co., Ltd. All animals were housed under a regimen of 12 h light/12 h dark cycles and specific pathogen-free conditions. 5×10^6 NCI-H526, ES-2, MDA-MB231, A2780, A375, B16F10, and TMD-8 cells (0.1 ml) were injected subcutaneously into female nude mice. The melanoma patient-derived xenograft model was derived from a human melanoma sample (BRAF, NARS and NF1 wild type, and p53 mutant) removed from a patient in Xiangya Hospital. Surgically removed tumor fragments were implanted subcutaneously into female NSG mice. When the tumors grew to ~1000 mm^3, they were harvested and cryopreserved or immediately re-implanted for expansion or experiments. Mouse body weight and tumor sizes were measured every 3 days. Once the tumors grew to 150–200 mm^3, mice were treated with the compounds as described in the Figures. 1 × 10^6 A2780 cells (1 ml) were injected into the abdominal cavity of nude mice. Ascitic volume and tumor weight were measured by an electronic balance. All the procedures were evaluated and approved by the Institutional Animal Care and Use Committee of Central South University and Yale University. […]
We apologize for not clearly labeling the experiments using compounds synthesized using Suzuki coupling method. In the revised manuscript, we modified the text to clearly mark the animal models in Fig 3d-f were tested using NHWD-870 synthesized using Suzuki […]
compared the activity of NHWD-870 synthesized using Stille coupling route with the NHWD-870 synthesized from Suzuki coupling route (Reviewer Figure 1). […]
activity and possible toxicity were identical.
Reviewer Figure 1 NHWD-870 synthesized through Stille or Suzuki route has similar properties in vivo. Tumor bearing mice were treated with 2mg/kg of the indicated compounds, orally administrated once daily for 21 days. Shown are tumor growth curves (a) and body weight change (b) for A375 melanoma bearing mice. […]
986158 in terms of potency, but apart from with the A375 melanocyte cell line, the advance seems relatively moderate. With such similar compounds, the pharmacokinetic properties and ability to accumulate at the desired site is often more important. Figure S6d (prev. Fig. 3d) in the previous

[3] = tested on: NCI-H211 small cell lung cancer (SCLC) cells; test: AlamarBlue assay, NCI-H211; format: cell-based; settings: for Cellular activity in SCLCs (H211), alamarBlue: Fig.1e, replicates
Outline: as §1

In the case of `Cc1nnn(C)c1-c1cnc2c3c4cnn(C)c4ccc3n([C@H](c3ccccc3)C3CCOCC3)c2c1` [NHWD-870], the “% of KI67 (Ki67 positive cells)” value (H526 tumors) is reported as 10% and 8% and 13% and 11% and 6%, the “Body weight change (%)” value ([1]; 3mg/kg,QD, day 0 and day 20 or the last available data point, individual mice) is reported as -7.583% and -7.971% and -2.299% and 0.4517% and the “Mouse body weight changes (%) from Day 0” value ([1]; Day 3, individual mice) is reported as -0.08% and -2.62% and -1.34% and 1.57% and 0.13% and 1.52%. The “Mouse body weight changes (%) from Day 0” value ([1]; Day 7, individual mice) was -7.05% and -0.52% and -4.19% and 1.94% and -3.62% and 0.82%, the “Mouse body weight changes (%) from Day 0” value ([1]; Day 10, individual mice) was -10.82% and -3.48% and 3.84% and -1.13% and -5.35% and 3.04% and the “Mouse body weight changes (%) from Day 0” value ([1]; Day 14, individual mice) was -1.11% and -16.35% and -6.33% and 0.59% and -10.57% and -3.67%. The “Mouse body weight changes (%) from Day 0” value ([1]; Day 17, individual mice) was 3.90% and -4.84% and -5.58% and -1.24% and -10.06% and -0.93%, the “Mouse body weight changes (%) from Day 0” value ([1]; Day 20, individual mice) was 0.45% and -8.20% and -7.58% and -7.97% and -11.87% and -2.30% and the body weight loss ([1]; H526 SCLC tumor bearing mice, 3mg/kg QD) was “about 6%”. For the same molecule, the “Cellular activity in TNBCs (MDA-MB231), alamarBlue” value (“Cellular activity in TNBCs” for short) ([2]; concentration 0.15) was 49.81 and 46.95, the “Cellular activity in TNBCs” value ([2]; concentration 0.6) was 80.07 and 80.02 and the “Cellular activity in TNBCs” value ([2]; concentration 1) was 86.71 and 86.28. For the same molecule, the “Cellular activity in TNBCs” value ([2]; concentration 1.5) was 87.88 and 89.64, the “Cellular activity in TNBCs” value ([2]; concentration 2) was 89.68 and 91.47 and the “Cellular activity in TNBCs” value ([2]; concentration 2.5) was 90.92 and 92.15. For the same molecule, the “Cellular activity in TNBCs” value ([2]; concentration 3) was 92.14 and 92.46, the “Cellular activity in TNBCs” value ([2]; concentration -0.3) was 13.41 and 13.25 and the “Cellular activity in TNBCs” value ([2]; concentration -0.9) was 6.42 and 8.37. For the same molecule, the IC50 ([2]; Homo sapiens, MDA-MB-231, 72 h, 72 h treatment, nM, read-out: IC50, cellular activity in MDA-MB231 (alamarBlue)) was 1.6 nM, the “effect on tumor growth” value (A375 human melanoma; A375 human melanoma, once daily (5 days on, 2 days off) 21 days, NHWD-870-HCl) was “very strong tumor inhibitive effects” and the “activity and possible toxicity, Stille versus Suzuki coupling route” value (A375 human melanoma; A375 melanoma bearing mice, 2mg/kg orally once daily for 21 days) was “identical”. For the same molecule, the “fold increased potency versus BMS-986158” value ([3]; Fig 1e, f) was 3 fold, the “Cellular activity in SCLCs (H211), alamarBlue” value (“Cellular activity in SCLCs” for short) ([3]; concentration 0.0169701) was 15.41 and 2.82 and the “Cellular activity in SCLCs” value ([3]; concentration 0.0398488) was 10.96 and 4.35. The “Cellular activity in SCLCs” value ([3]; concentration 0.137272) was 28.76 and 26.98, the “Cellular activity in SCLCs” value ([3]; concentration 0.614394) was 86.83 and 87.53 and the “Cellular activity in SCLCs” value ([3]; concentration 1.09152) was 89.61 and 89.15. The “Cellular activity in SCLCs” value ([3]; concentration 1.56864) was 89.26 and 88.73, the “Cellular activity in SCLCs” value ([3]; concentration 2.04576) was 89.83 and 90.11 and the “Cellular activity in SCLCs” value ([3]; concentration 3) was 91.32 and 90.79. For the same molecule, the “Cellular activity in SCLCs” value ([3]; concentration column prints 2.52288) was 91.56 and 90.89, the IC50 ([3]; Homo sapiens, NCI-H211, 72 h, 72 h treatment, nM, read-out: IC50, cellular activity in NCI-H211 (alamarBlue)) was 2 nM and the “fold more potent than JQ1” value ([3]; NCI-H211 and MDA-MB231 cells) was “about 50 fold”.
